Results as given in US8211919B2, “Amide derivatives as rock inhibitors” (Astellas Pharma Inc., priority 2005, dated 2012).
Where a name gives a salt, the structure may show the parent alone.

What was measured:
human ROCK I = target: T1, human ROCK I (Homo sapiens, UniProt Q13464); assay: ROCK enzyme inhibition assay; assay type: biochemical
T1 construct: purchased Caruna Biosciences (sic)
Protocol: ROCK enzyme inhibitory activity of the compounds of the present invention has been assayed as follow. A aqueous solution of Rho kinase substrate MYTP was added to 96-well plate. Following incubation for overnight at 4° C., the plate was blocked by using blocking buffer containing BSA. To the plate was added reaction buffer containing each concentration of compound, suitable concentration of human ROCK I (Caruna Biosciences), ATP, β-glycerol phosphate, EGTA, sodium orthovanadate and DTT, and then the plate was incubated for 1 hour. After washing the plate by washing buffer, anti-phosphothreonin antibody was added to the plate, and then the plate was incubated for 1 hour. After washing the plate by washing buffer again, HRP-conjugated anti-phosphorylated protein antibody was added to the plate, and then the plate was incubated for 1 hour. After washing the plate by washing buffer again, calorimetric substrate TMB microwell peroxidase substrate was added to the plate, and then the plate was incubated for appropriate time. After incubation, H2SO4 was added to the plate to stop the reaction, and then absorbance (450 nm) was measured by using spectromether. Based on the absorbance for each compound, the data is fit using Prism software to obtain a IC50 value.

Male Wistar rats [1] = assay: Inhibitory effects on phenylephrine-induced elevation of urethral pressure; assay type: in vivo, rat; settings: i.v.; phenylephrine 30 ug/kg i.v.
Text: To evaluate the usefulness of the compounds of the present invention for urinary dysfunction associated with benign prostatic hyperplasia, we investigated the inhibitory effects of the intravenous administration of the compounds on phenylephrine-induced elevation of the urethral pressure in rats.
Male Wistar rats were anesthetized with urethane (SIGMA, USA). After midline abdominal incision, catheter to measure the urethral pressure (3.5 Fr, Millar, USA) was inserted into the urethra from top of the bladder. After confirming the Phenylephrine (30 ug/kg i.v.)-induced elevation of the urethral pressure, compounds were administered intravenously in increasing doses. Every 5 min after administration of compounds, Phenylephrine (30 ug/kg i.v.) was injected, and the inhibitory effects of compounds on phenylephrine-induced elevation of urethral pressure were evaluated. Each experiment was performed in about 4 animals.

[2] = tested on: Male SD rats, intra-articular MIA in right knee; assay: Changes in hindlimb weight distribution, monosodium iodoacetate (MIA) osteoarthritis model; assay type: in vivo; settings: Rattus norvegicus, 504 h; oral administration; three weeks after MIA injection; incapacitance tester
Text: As intra-articular injection of monosodium iodoacetate (MIA) induced human osteoarthritis-like histopathological changes in knee joint, this model would be very useful for the study of human osteoarthritis. Recently, it is reported the clinical scores of the joint pain were closely correrated to the grade of histological findings (J Vet Med Sci 65, 1195, 2003) and this model may be useful for estimation of therapeutic effects of pain with osteoarthritis.
Male SD rats were anesthetized with halothane (Takeda, Japan) and given single intra-articular injection of 1 mg of monosodium iodoacetate (MIA; Sigma, St. Louis, USA) through the infrapatellar ligament of the right knee. MIA was dissolved with physiologic saline and administered in a volume of 50 ul using a 27-gauge, 0.5-inch needle. Three weeks after the injection, hindlimb weight distribution was determined using an incapacitance tester (Linton Instrumentation, Norfork, UK). Rats were allowed to acclimate to the testing apparatus and when stationary, readings were taken over a 5 s period. […] Each group in each experiment were performed in about 8 animals.

Male Wistar rats [3] = assay: Effects on hindlimb blood flow (laser Doppler); assay type: in vivo, rat; settings: 10 mg/kg p.o.
Text: As one of the study to clarify the usefulness of the compounds of the present invention for peripheral arterial disease, we conducted a study to evaluate the effects of the compounds on hindlimb blood flow in rats.
Male Wistar rats were anesthetized by intraperitoneal pentobarbital injection (Kanto chemical, Japan) after oral administration of compounds. Rats were placed on a heating plate for subsequent hindlimb blood flow analysis. We measured hindlimb blood flow using a laser Doppler blood flow meter (PeriScan System, Stockholm, Sweden). After the laser Doppler images were recorded, the average perfusion values of both limbs were calculated, and evaluated the effects of compounds on hindlimb blood flow. Each experiment was performed in about 4 animals.

[4] = tested on: Female SD rats, bradykinin injected into knee joint cavity; assay: Pain alleviation effect on bradykinin induced joint pain model; assay type: in vivo, rat
Protocol: Bradykinin is known to be one of the important pain-related mediators in various pain and especially, sodium hyaluronate which is useful for pain in osteoarthritis is reported to be effective in bradykinin-induced joint pain model. Therefore, we examined effects of compounds in the model.
The making of the joint pain model and evaluation of a level of pain was conducted essentially based on the method described in Folia pharmacol. japon., 92, 17-27 (1988). Female SD rats (6-7 weeks old, Charles River Japan, Inc.) were anesthetized with halothane (Wako). Compound of the above Example were administrated orally to the rat by using oral sonde for rat. 60 min after administration of the compound, saline solution of bradykinin was injected into knee joint cavity of hind limb of rat (3 uM/site/50 ul), and then the response to pain of the rat after administration of bradykinin was observed. Level of pain was scored as five grade point (0-4) as follow: 0: no lameness to lameness for 10 seconds; 1: lameness for 10 to 30 seconds; 2: lift of the limb within 10 seconds or lameness for 31 or more seconds; 3: three-legged gait within 10 seconds followed by lameness; 4: three-legged gait for 10 or more seconds followed by lameness. About 10 rat models were used in each experimental group. It was confirmed that administration of bradykinin leads to response to pain scored as about 3.

T1 sequence (Q13464 whole entry): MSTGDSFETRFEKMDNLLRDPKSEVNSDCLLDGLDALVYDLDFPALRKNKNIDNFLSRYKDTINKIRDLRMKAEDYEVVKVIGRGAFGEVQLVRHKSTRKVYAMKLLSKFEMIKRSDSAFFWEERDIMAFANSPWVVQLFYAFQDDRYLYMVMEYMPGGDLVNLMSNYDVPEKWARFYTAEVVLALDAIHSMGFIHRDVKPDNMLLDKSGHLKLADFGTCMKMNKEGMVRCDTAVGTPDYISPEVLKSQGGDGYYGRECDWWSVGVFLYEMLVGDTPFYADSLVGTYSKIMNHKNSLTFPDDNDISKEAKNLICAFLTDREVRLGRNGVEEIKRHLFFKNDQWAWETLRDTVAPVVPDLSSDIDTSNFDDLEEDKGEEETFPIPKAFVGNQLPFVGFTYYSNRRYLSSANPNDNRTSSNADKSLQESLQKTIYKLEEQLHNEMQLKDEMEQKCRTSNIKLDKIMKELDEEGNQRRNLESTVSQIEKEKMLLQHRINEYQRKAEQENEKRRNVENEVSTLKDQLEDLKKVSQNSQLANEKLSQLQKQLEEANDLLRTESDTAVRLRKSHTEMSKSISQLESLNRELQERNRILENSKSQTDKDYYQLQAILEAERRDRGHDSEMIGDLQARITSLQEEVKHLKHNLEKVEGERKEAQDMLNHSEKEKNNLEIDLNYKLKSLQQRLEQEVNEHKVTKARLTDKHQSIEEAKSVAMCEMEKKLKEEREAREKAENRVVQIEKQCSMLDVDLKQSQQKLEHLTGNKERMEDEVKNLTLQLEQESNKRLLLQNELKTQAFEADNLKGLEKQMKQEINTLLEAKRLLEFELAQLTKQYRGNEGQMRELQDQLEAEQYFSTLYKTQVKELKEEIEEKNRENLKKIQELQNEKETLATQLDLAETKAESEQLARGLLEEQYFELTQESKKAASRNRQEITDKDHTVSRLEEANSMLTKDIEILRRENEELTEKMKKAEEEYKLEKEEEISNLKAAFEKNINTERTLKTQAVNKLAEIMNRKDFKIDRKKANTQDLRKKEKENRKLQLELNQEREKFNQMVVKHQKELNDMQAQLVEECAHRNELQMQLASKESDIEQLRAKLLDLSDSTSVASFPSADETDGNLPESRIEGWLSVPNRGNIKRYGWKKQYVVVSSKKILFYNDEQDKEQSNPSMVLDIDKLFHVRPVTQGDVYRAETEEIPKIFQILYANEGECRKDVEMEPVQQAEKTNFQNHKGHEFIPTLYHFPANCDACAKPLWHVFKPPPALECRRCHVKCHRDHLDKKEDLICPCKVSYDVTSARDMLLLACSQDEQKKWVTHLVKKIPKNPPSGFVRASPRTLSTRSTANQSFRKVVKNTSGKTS

IC50 (human ROCK I) | SMILES | Inhibition of elevation in urethral pressure ED30 (Male Wistar rats [1]) | ED50 [2] | % of increase of blood flow (Male Wistar rats [3]) | pain score ([4]; 32 mg/kg orally, 60 min before bradykinin, grade 0-4, vehicle 2.7) | bradykinin-induced pain responses ([4]; oral administration, dose dependence)
122 nM | O=C(Nc1ccc(-c2ccncc2)cc1)N[C@H](CO)c1ccccc1 [Example 4, 1-[(1S)-2-hydroxy-1-phenylethyl]-3-[4-(4-pyridinyl)phenyl]urea] |  | < 3 mg/kg | >130% |  | 
10 nM | N[C@H](Cc1ccccc1)C(=O)Nc1ccc(-c2ccncc2)cc1 [Example 54, (2R)-2-amino-3-phenyl-N-[4-(4-pyridinyl)phenyl]propanamide] |  | < 3 mg/kg | >130% |  | 
77 nM | Cl.O=C(CNc1ccccc1)Nc1ccc(-c2ccncc2)cc1 [Example 26, 2-anilino-N-[4-(4-pyridinyl)phenyl]acetamide hydrochloride] |  |  |  | 1.4 | dose dependently improved
21 nM | CN[C@H](Cc1ccccc1)C(=O)Nc1ccc(-c2ccncc2)cc1 [Example 98, N-alpha-methyl-N-[4-(4-pyridinyl)phenyl]-D-phenylalaninamide] |  | < 3 mg/kg | >130% |  | 
84 nM | O=C(Nc1ccc(-c2ccncc2)cc1)N[C@@H](CO)Cc1ccccc1 [Example 73, 1-[(1R)-1-benzyl-2-hydroxyethyl]-3-[4-(4-pyridinyl)phenyl]urea] |  |  |  |  | 
342 nM | O=C(NCc1ccccc1)Nc1ccc(-c2ccncc2)cc1 [Example 1, 1-benzyl-3-[4-(4-pyridinyl)phenyl]urea] |  |  |  |  | 
18 nM | N[C@@H](Cc1ccccc1)C(=O)Nc1ccc(-c2ccncc2)cc1 [Example 53, (2S)-2-amino-3-phenyl-N-[4-(4-pyridinyl)phenyl]propanamide dihydrochloride] |  |  |  |  | 
240 nM | C[C@@H](NC(=O)Nc1ccc(-c2ccncc2)cc1)c1ccccc1 [Example 3, 1-[(1R)-1-phenylethyl]-3-[4-(4-pyridinyl)phenyl]urea] |  |  |  |  | 

More lines, now with the values behind:

SMILES | IC50 (human ROCK I) | Inhibition of elevation in urethral pressure ED30 (Male Wistar rats [1]) | ED50 [2] | % of increase of blood flow (Male Wistar rats [3]) | pain score ([4]; 32 mg/kg orally, 60 min before bradykinin, grade 0-4, vehicle 2.7) | bradykinin-induced pain responses ([4]; oral administration, dose dependence)
Nc1nccc(-c2ccc3c(c2)CCN3C(=O)[C@@H](N)Cc2ccccc2)n1 [Example 151, 4-{1-[(2S)-2-amino-3-phenylpropanoyl]-2,3-dihydro-1H-indol-5-yl}pyrimidin-2-amine] | 86 nM | <1 mg/kg |  |  |  | 
O=C(Nc1ccc(-c2ccncc2)cc1)C(c1ccccc1)N1CCOCC1 (centres unmarked) [Example 119, 2-morpholin-4-yl-2-phenyl-N-[4-(4-pyridinyl)phenyl]acetamide] | 212 nM |  | < 3 mg/kg |  |  | 
Nc1nccc(-c2ccc(NC(=O)[C@H](N)c3cccs3)cc2)n1 [Example 155, (2S)-2-amino-N-[4-(2-aminopyrimidin-4-yl)phenyl]-2-(2-thienyl)acetamide] | 72 nM |  |  |  |  | 
N[C@H](Cc1cccc(F)c1)C(=O)Nc1ccc(-c2ccncc2)cc1 [Example 86, 3-fluoro-N-[4-(4-pyridinyl)phenyl]-D-phenylalaninamide] | 5 nM |  |  | >130% |  | 
O=C(Nc1ccc(-c2ccncc2)cc1)N[C@H](CO)c1ccccc1C(F)(F)F [Example 72, 1-{(1S)-2-hydroxy-1-[2-(trifluoromethyl)phenyl]ethyl}-3-[4-(4-pyridinyl)phenyl]urea] | 25 nM |  |  |  |  | 
O=C(Nc1ccc(-c2ccncc2)cc1)N[C@H](CO)c1cccs1 [Example 67, 1-[(1R)-2-hydroxy-1-(2-thienyl)ethyl]-3-[4-(4-pyridinyl)phenyl]urea] | 112 nM |  | < 3 mg/kg | >130% |  | 
N[C@H](C(=O)Nc1ccc(-c2ccncc2)cc1)c1ccccc1 [Example 109, (2S)-2-amino-2-phenyl-N-[4-(4-pyridinyl)phenyl]acetamide] | 12 nM | <1 mg/kg |  |  |  | 
N[C@@H](Cc1ccccc1)C(=O)N1CCc2cc(-c3ccncc3)ccc21 [Example 58, (2S)-1-oxo-3-phenyl-1-[5-(4-pyridinyl)-2,3-dihydro-1H-indol-1-yl]-2-propanamine] | 53 nM |  | < 3 mg/kg |  |  | 
N[C@@H](C(=O)Nc1ccc(-c2ccncc2)cc1)c1ccccc1 [Example 108, (2R)-2-amino-2-phenyl-N-[4-(4-pyridinyl)phenyl]acetamide] | 14 nM |  | < 3 mg/kg | >130% |  | 
Nc1nccc(-c2ccc(NC(=O)[C@H](N)c3ccccc3)cc2)n1 [Example 154, (2R)-2-amino-N-[4-(2-aminopyrimidin-4-yl)phenyl]-2-phenylacetamide] | 42 nM | <1 mg/kg | < 3 mg/kg | >130% |  | 
